Measurements from patent US20130040978A1 (priority 2010, published 2013).
Where a name gives a salt, the structure may show the parent alone.

Biological target: SSTR5 (Homo sapiens, UniProt P35346)
Test: Functional assay of inhibition of SSTR5 mediated cyclic AMP production in SSTR5 expressing CHO cells
Format: cell-based, human
Settings: forskolin (FSK) plus SS-28, read-out: cAMP IC50

Chain of SSTR5 (P35346 whole entry): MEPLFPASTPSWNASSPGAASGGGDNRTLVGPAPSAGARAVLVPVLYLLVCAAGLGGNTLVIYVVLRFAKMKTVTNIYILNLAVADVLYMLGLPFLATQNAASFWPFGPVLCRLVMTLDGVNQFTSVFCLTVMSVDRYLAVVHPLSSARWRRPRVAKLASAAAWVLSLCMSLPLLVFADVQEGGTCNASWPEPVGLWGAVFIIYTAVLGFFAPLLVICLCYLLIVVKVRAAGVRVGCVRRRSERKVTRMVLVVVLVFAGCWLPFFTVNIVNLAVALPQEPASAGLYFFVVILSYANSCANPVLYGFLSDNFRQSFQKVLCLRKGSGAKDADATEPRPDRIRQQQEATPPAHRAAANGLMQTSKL

Structure (SMILES) | IC50
CC(C)n1cc(CN2CCC3(CC2)CC(c2ccc(C(=O)O)cc2)=NO3)c2c(-c3ccc(F)cc3)cccc21 [Example 39, 4-(8-{[4-(4-Fluorophenyl)-1-(propan-2-yl)-1H-indol-3-yl]methyl}-1-oxa-2,8-diazaspiro[4.5]dec-2-en-3-yl)benzoic acid, TFA salt] | 0.18 nM
CC(C)n1cc(CN2CCC3(CC2)CC(c2ccc(C(=O)O)cc2)=NO3)c2c(-c3ccc(F)nc3)cccc21 [Example 40, 4-(8-{[4-(6-Fluoropyridin-3-yl)-1-(propan-2-yl)-1H-indol-3-yl]methyl}-1-oxa-2,8-diazaspiro[4.5]dec-2-en-3-yl)benzoic acid, TFA salt] | 0.4 nM
CC(C)n1cc(CN2CCC3(CC2)CC(c2ccc(C(=O)O)cc2)=NO3)c2c(-c3cc(F)c(F)cc3F)cccc21 [Example 41, 4-(8-{[4-(2,4,5-Trifluorophenyl)-1-(propan-2-yl)-1H-indol-3-yl]methyl}-1-oxa-2,8-diazaspiro[4.5]dec-2-en-3-yl)benzoic acid, TFA salt] | 0.3 nM
CC(C)n1cc(CN2CCC3(CC2)CC(c2ccc(C(=O)O)cc2)=NO3)c2c(-c3ccc(F)cc3)ccnc21 [Example 43, 4-(8-{[4-(4-Fluorophenyl)-1-(propan-2-yl)-1H-pyrrolo[2,3-b]pyridin-3-yl]methyl}-1-oxa-2,8-diazaspiro[4.5]dec-2-en-3-yl)benzoic acid, TFA salt] | 2.5 nM
Cc1cccc2c(CN3CCC4(CC3)CC(c3ccc(C(=O)O)cc3)=NO4)cn(C(C)C)c12 [Example 44, 4-(8-{[7-Methyl-1-(propan-2-yl)-1H-indol-3-yl]methyl}-1-oxa-2,8-diazaspiro[4.5]dec-2-en-3-yl)benzoic acid, TFA salt] | 14.4 nM
Cc1cccc2c(CN3CCC4(CC3)CC(c3ccc(C(=O)O)cc3)=NO4)cn(C3CC3)c12 [Example 45, 4-(8-{[7-Methyl-1-(cyclopropyl)-1H-indol-3-yl]methyl}-1-oxa-2,8-diazaspiro[4.5]dec-2-en-3-yl)benzoic acid, TFA salt] | 9.15 nM
CC(C)n1cc(CN2CCC3(CC2)CC(c2ccc(C(=O)O)cc2)=NO3)c2c(F)c(F)c(F)c(F)c21 [Example 46, 4-(8-{[1-(propan-2-yl)-4,5,6,7-(tetrafluoro)-1H-indol-3-yl]methyl}-1-oxa-2,8-diazaspiro[4.5]dec-2-en-3-yl)benzoic acid, TFA salt] | 12.1 nM
CC(C)n1cc(CN2CCC3(CC2)CC(c2ccc(C(=O)O)cc2)=NO3)c2c(C3CC3)cccc21 [Example 47, 4-(8-{[4-(Cyclopropyl)-1-(propan-2-yl)-1H-indol-3-yl]methyl}-1-oxa-2,8-diazaspiro[4.5]dec-2-en-3-yl)benzoic acid, TFA salt] | 0.28 nM
CC(C)n1cc(CN2CCC3(CC2)CC(c2ccc(C(=O)O)cc2)=NO3)c2cccc(C3CC3)c21 [Example 48, 4-(8-{[7-(Cyclopropyl)-1-(propan-2-yl)-1H-indol-3-yl]methyl}-1-oxa-2,8-diazaspiro[4.5]dec-2-en-3-yl)benzoic acid, TFA salt] | 3.36 nM
O=C(O)c1ccc(C2=NOC3(CCN(Cc4cn(C5CC5)c5ccc(C6CC6)cc45)CC3)C2)cc1 [Example 49, 4-(8-{[1,5-(Dicyclopropyl)-1H-indol-3-yl]methyl}-1-oxa-2,8-diazaspiro[4.5]dec-2-en-3-yl)benzoic acid, TFA salt] | 2.5 nM
O=C(O)c1ccc(C2=NOC3(CCN(Cc4cn(C5CC5)c5c(C6CC6)cccc45)CC3)C2)cc1 [Example 50, 4-(8-{[1,7-(Dicyclopropyl)-1H-indol-3-yl]methyl}-1-oxa-2,8-diazaspiro[4.5]dec-2-en-3-yl)benzoic acid, TFA salt] | 13.5 nM
CC(C)n1cc(CN2CCC3(CC2)CC(c2ccc(C(=O)O)cc2)=NO3)c2cc(F)ccc21 [Example 51, 4-(8-{[5-Fluoro-1-(propan-2-yl)-1H-indol-3-yl]methyl}-1-oxa-2,8-diazaspiro[4.5]dec-2-en-3-yl)benzoic acid, TFA salt] | 8.32 nM
Cc1cc(-c2cccnc2)c(CN2CCC3(CC2)CC(c2ccc(C(=O)O)cc2)=NO3)cc1C(F)(F)F [Example 68] | 13.2 nM
